{
  "source": "patent US4053580A",
  "about": "“Microsealed pharmaceutical delivery device” (G. D. Searle & Co., priority 1975, dated 1977)",
  "assay_type_in_all_cases": "physicochemical",
  "key": {"[1]": {"assay": "Release of pharmaceutical from microsealed silicone delivery device (release rate and kinetics)", "settings": "device: 2 parts drug in 2 parts 40% PEG (MW 380-420) in water, Silastic 382 matrix, Silastic tubing", "text": "amount of pharmaceutical released decreases with time and Q - t\nThose skilled in the pharmaceutical arts will know how to determine toxic levels of a given pharmaceutical, and the minimum effective dose. With this information a proper dosage form can be prepared by measuring the in vivo rate of elution of a given pharmaceutical by standard analytic tecniques e.g. spectroscopic or radio immunoassay analysis. In vitro diffusion of the pharmaceutical from a delivery device may be determined by the methods of Chien and Lambert, J. Pharm. Sci., 63, 365 (1974) or by methods described in U.S. Pat. No. 3,710,795.\nA biologically acceptable silicone polymer matrix containing a pharmaceutical in a hydrophilic solvent system is prepared as follows: […] of ethynodiol diacetate at 37° C. by vigorous agitation for 10 minutes. To this mixture is added 6 parts of liquid silicone polymer of the formula [drawing 5] sold as Silastic® Medical Grade 382 Elastomer by Dow-Corning and this combination is stirred with a mechanical mixer at 1000 rpm for 28 minutes. 0.015 Parts of a cross-linking agent (stannous octanoate is added to the combination and stirring is continued for 2 minutes. The combination is placed in a silicone rubber tubing (I.D. 3.18mm, 0.D. 6.35mm sold by Dow-Corning as Medical Grade Silastic Tubing No. 601-365). This tubing is a silicone polymer of the formula The system is allowed to cross-link for 1 hour and then the tubing is sectioned to provide pharmaceutical delivery devices with the desired amount of pharmaceutical. The ends of the sections may be sealed or left open and additional openings may be made in the walls of the tubing to facilitate higher but still constant rates of release. This device releases 315.6 mcg/cm^2 /day of ethynodiol diacetate. Replacement of the ethynodiol diacetate with 2 parts of one of the following pharmaceuticals provides the indicated release rate: […]"}, "[2]": {"assay": "Solubility of pharmaceutical (Cl) in hydrophilic solvent system at 37° C, 24 h shaking", "settings": "organic solvent or mixture", "protocol": "Solubility of a pharmaceutical (Cl) is measured by constant shaking for 24 hours an excess amount of powdered pharmaceutical in 10 ml. of a hydrophilic solvent system at 37° C. The solution is filtered and the content of the pharmaceutical is measured.\n(§1) Table I is illustrative of the relation between Cl, Kb, release rate, and kinetics of release of 17α-ethynyl-4-estrene-3β,17β-diol 3,17-diacetate (ethynodiol diacetate) in a hydrophilic solvent system of polyethylene glycol having a molecular weight of about 400."}, "[3]": {"assay": "Partition coefficient (Kb) between hydrophilic solvent system and silicone polymer matrix", "protocol": "Partition coefficient K(b) is measured by immersing a known surface area of biologically acceptable silicone polymer matrix material in a solution of the pharmaceutical in the hydrophilic solvent system with constant shaking for 24 hours and then measuring the amount of pharmaceutical remaining in the solvent system.\nCi = initial concentration of pharmaceutical\nCl = Equilibrium concentration of pharmaceutical\nas §1"}, "[4]": {"assay": "Release of pharmaceutical from microsealed silicone delivery device (release rate and kinetics)", "settings": "for Kinetics of release: Q - t = partition controlled, constant release independent of time"}},
  "data": [
    {"compound": "CC(=O)S[C@@H]1CC2=CC(=O)CC[C@]2(C)[C@H]2CC[C@@]3(C)[C@@H](CC[C@@]34CCC(=O)O4)[C@H]12", "note": "[7α-acetylthio-17α-(2-carboxyethyl)-17β-hydroxyandrost-4-en-3-one lactone]", "values": [
      {"measurement": "Release rate", "setting": "[1]", "result": 18.25, "unit": "mcg/cm^2 /day"}
    ]},
    {"compound": "COC(=O)C1CC2=CC(=O)CCC2(C)C2CCC3(C)C(CCC34CCC(=O)O4)C12", "note": "(stereo not drawn) [17-hydroxy-7β-methoxycarbonyl-3-oxo-17α-pregn-4-ene-21-carboxylic acid γ-lactone]", "values": [
      {"measurement": "Release rate", "setting": "[1]", "result": 63.08, "unit": "mcg/cm^2 /day"}
    ]},
    {"compound": "CC(=O)O[C@]1(C(C)=O)CC[C@H]2[C@@H]3CCC4=CC(=O)CC[C@@H]4[C@H]3[C@@H](C)C[C@@]21C", "note": "[17α-acetoxy-11β-methyl-19-norpregn-4-ene-3,20-dione]", "values": [
      {"measurement": "Release rate", "setting": "[1]", "result": 51.89, "unit": "mcg/cm^2 /day"}
    ]},
    {"compound": "CC(=O)OCC(=O)[C@H]1CC[C@H]2[C@@H]3CCC4=CC(=O)CC[C@]4(C)[C@H]3CC[C@]12C", "note": "[Desoxycorticosterone acetate]", "values": [
      {"measurement": "Release rate", "setting": "[1]", "result": 55.1, "unit": "mcg/cm^2 /day"}
    ]},
    {"compound": "C#C[C@]1(OC(C)=O)CC[C@H]2[C@@H]3CCC4=C[C@@H](OC(C)=O)CC[C@@H]4[C@H]3CC[C@@]21C", "note": "[ethynodiol diacetate, 17α-ethynyl-4-estrene-3β,17β-diol 3,17-diacetate]", "values": [
      {"measurement": "solubility at 24 h", "setting": "[2]; 30% PEG 400, 37° C", "result": 64.6, "unit": "µg/mL"},
      {"measurement": "solubility at 24 h", "setting": "[2]; 50% PEG 400, 37° C", "result": 156, "unit": "µg/mL"},
      {"measurement": "solubility at 24 h", "setting": "[2]; 60% PEG 400, 37° C", "result": 437, "unit": "µg/mL"},
      {"measurement": "solubility at 24 h", "setting": "[2]; 80% PEG 400, 37° C", "result": 4460, "unit": "µg/mL"},
      {"measurement": "solubility at 24 h", "setting": "[2]; 100% PEG 400, 37° C", "result": 45600, "unit": "µg/mL"},
      {"measurement": "Kb/Cl", "setting": "[3]; 30% PEG 400", "result": 0.355, "unit": "mL/µg"},
      {"measurement": "Kb/Cl", "setting": "[3]; 50% PEG 400", "result": 0.061, "unit": "mL/µg"},
      {"measurement": "Kb/Cl", "setting": "[3]; 60% PEG 400", "result": 0.0078, "unit": "mL/µg"},
      {"measurement": "Kb/Cl", "setting": "[3]; 80% PEG 400", "result": "7.4e-05", "unit": "mL/µg"},
      {"measurement": "Kb/Cl", "setting": "[3]; 100% PEG 400", "result": "7e-07", "unit": "mL/µg"},
      {"measurement": "Release rate", "setting": "[1]", "result": 315.6, "unit": "mcg/cm^2 /day"},
      {"measurement": "Release rate time dependence with alternative solvent systems", "setting": "[4]; 1,3-butanediol, propylene glycol, PEG 4000, PEG 6000, Solketal, Medical Fluid 360 solvent systems", "result": "independent of time"},
      {"measurement": "Release from devices with alternative solvent systems", "setting": "[4]; 1,3-butanediol, propylene glycol, PEG 4000, PEG 6000, Solketal, Medical Fluid 360 solvent systems, prepared as for PEG 400", "result": "150 - 275 mcg/cm^2"},
      {"measurement": "Rate of Pharmaceutical Release", "setting": "[4]; 30% PEG 400", "result": 297.8, "unit": "gm/10^6 cm^2/day"},
      {"measurement": "Kinetics of release", "setting": "[4]; 30% PEG 400", "result": "Q - t"},
      {"measurement": "Rate of Pharmaceutical Release", "setting": "[4]; 50% PEG 400", "result": 315.6, "unit": "gm/10^6 cm^2/day"},
      {"measurement": "Kinetics of release", "setting": "[4]; 50% PEG 400", "result": "Q - t"},
      {"measurement": "Rate of Pharmaceutical Release", "setting": "[4]; 60% PEG 400", "result": 319.4, "unit": "gm/10^6 cm^2/day"},
      {"measurement": "Kinetics of release", "setting": "[4]; 60% PEG 400", "result": "Q - t"},
      {"measurement": "Rate of Pharmaceutical Release", "setting": "[4]; 80% PEG 400", "result": 1203, "unit": "gm/10^6 cm^2/day^1/2"},
      {"measurement": "Rate of Pharmaceutical Release", "setting": "[4]; 100% PEG 400", "result": 1095, "unit": "gm/10^6 cm^2/day^1/2"},
      {"measurement": "Release rate from silicone rubber implantates, relation to time", "setting": "[4]; in the absence of microsealed compartments containing a suitable hydrophilic solvent", "result": "porportional to the square root of time (T^1/2)"}
    ]},
    {"compound": "Cc1ncc([N+](=O)[O-])n1CCO", "note": "[metronidazole]", "values": [
      {"measurement": "Release rate", "setting": "[1]", "result": 4.23, "unit": "mcg/cm^2 /day"}
    ]}
  ]
}
